These are literature values, as cited in paper PMC4682187, “Fusarinine C, a novel siderophore‐based bifunctional chelator for radiolabeling with Gallium‐68” (Journal of Labelled Compounds & Radiopharmaceuticals, 2015).

For data set [1] the following is noted: ^68Ga complex of TAFC. The text has this:
To evaluate this hypothesis, a RGD peptide targeting the ...

The conditions of data set [2]: dilution of DFO; at nanomolar level (<50 nM) DFO does not act as a good chelating agent for gallium. An excerpt:
Caraco et al. reported that dilution of DFO, an acyclic analogue of FSC, could cause the breakdown of the ^67Ga^3+–DFO complex.

For the molecule `CC(=O)NC1CCCN(O)C(=O)/C=C(/C)CCOC(=O)C(NC(C)=O)CCCN(O)C(=O)/C=C(/C)CCOC(=O)C(NC(C)=O)CCCN(O)C(=O)/C=C(/C)CCOC1=O` (centres unmarked) [TAFC, triacetylfusarinine], the Metabolic stability entry in data set [1] is recorded as “excellent metabolic stabilities”.
With `CC(=O)N(O)CCCCCNC(=O)CCC(=O)N(O)CCCCCNC(=O)CCC(=O)N(O)CCCCCN` [^67Ga^3+–DFO complex, desferoxamine B, metal not drawn], the “Stability of the complex on dilution” value in data set [2] is recorded as “breakdown”.
